Results from US9675697B2 (THE REGENTS OF THE UNIVERSITY OF MICHIGAN, priority 2013, dated 2017).
Where two headings read alike, the source gives them in different places.

Tests used:
MOLM-13 = assay: Cell growth inhibition, CellTiter-Glo, acute leukemia cell line; assay type: cell-based; details: Homo sapiens, MOLM-13, 96 h, 4 days
Procedure: (§1) Cell growth inhibitory activity of representative BET bromodomain inhibitors was determined using CellTiter-Glo® Luminescent Cell Viability Assay. For leukemia cell lines MV-4-11 (ATCC, Manassas, Va.) and MOLM-13 (DSMZ, Germany), cells were seeded in 96-well white opaque cell culture plates at a density of 10,000 cells/well with serially diluted compounds and incubated at 37° C. in an atmosphere of 95% air and 5% CO2 for 4 days. Cell viability was determined using the CellTiter-Glo® Luminescent Cell Viability Assay Kit (Promega, Madison, Wis.) according to the manufacture's instruction. Briefly, a volume of CellTiter-Glo® Reagent equal to the volume of cell culture medium was added to each well, and then the plates were incubated at room temperature for 10-20 minutes. The luminescent signal was measured using a Tecan Infinite M1000 multimode microplate reader (Tecan, Morrisville, N.C.). The half maximal inhibitory concentration (IC50) was calculated using the GraphPad Prism 5 software (GraphPad Software, La Jolla, Calif.).

MV-4-11 = assay: as above; assay type: cell-based; details: Homo sapiens, MV4-11, 96 h, 4 days
Procedure: as §1

BRD3 BD1 [1] = target: T1, BRD3 BD1 (Homo sapiens (Human), UniProt Q15059); assay: FP protein saturation experiment with probe Cpd. No. 350; assay type: binding; details: probe 1.5 nM
T1 sequence (Q15059 34-140): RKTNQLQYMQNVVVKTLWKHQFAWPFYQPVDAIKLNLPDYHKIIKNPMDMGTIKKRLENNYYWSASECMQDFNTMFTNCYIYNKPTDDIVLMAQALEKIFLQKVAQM
Procedure: (§2) Fluorescence Polarization (FP) competitive binding studies (see above) were carried out using the FAM labeled fluorescent probe Cpd. No. 350 to determine binding affinities of representative compounds to both BD1 and BD2 of BRD2, BRD3, and BRD4 proteins. Equilibrium dissociation constants (Id) values of Cpd. […] Final Cpd. […] Kd values of Cpd.

BRD4 BD1 [2] = target: T2, BRD4 BD1 (Homo sapiens (Human), UniProt O60885); assay: as above; assay type: binding; details: probe 1.5 nM
Procedure: as §2

BRD3 BD2 [3] = target: T3, BRD3 BD2 (Homo sapiens (Human), UniProt Q15059); assay: as above; assay type: binding; details: probe 1.5 nM
T3 sequence (Q15059 306-415): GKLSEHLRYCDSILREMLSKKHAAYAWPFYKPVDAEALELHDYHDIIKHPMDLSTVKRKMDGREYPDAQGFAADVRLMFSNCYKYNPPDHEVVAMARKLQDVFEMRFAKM
Procedure: as §2

BRD2 BD2 [4] = target: T4, BRD2 BD2 (Homo sapiens (Human), UniProt P25440); assay: as above; assay type: binding; details: probe 1.5 nM
T4 sequence (P25440 344-453): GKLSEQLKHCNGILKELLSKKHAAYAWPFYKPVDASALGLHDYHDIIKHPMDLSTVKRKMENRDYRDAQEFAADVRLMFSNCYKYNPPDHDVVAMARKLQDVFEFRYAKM
Procedure: as §2

BRD2 BD1 [5] = target: T5, BRD2 BD1 (Homo sapiens (Human), UniProt P25440); assay: as above; assay type: binding; details: probe 1.5 nM
T5 sequence (P25440 74-180): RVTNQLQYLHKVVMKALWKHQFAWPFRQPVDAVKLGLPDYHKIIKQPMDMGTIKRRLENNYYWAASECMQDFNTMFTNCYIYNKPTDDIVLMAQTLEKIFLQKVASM
Procedure: as §2

BRD4 BD2 [6] = target: T6, BRD4 BD2 (Homo sapiens (Human), UniProt O60885); assay: as above; assay type: binding; details: probe 1.5 nM
Procedure: as §2

MV4;11 = assay: Cell growth inhibition in leukemia cell line; assay type: cell-based
K562 = assay: Cell growth inhibition in leukemia cell line; assay type: cell-based; details: Homo sapiens
BRD4 BD1 [7] = target: T2, BRD4 BD1; assay: OctetRED biolayer interferometry (BLI) binding assay
Procedure: (§3) Binding affinities of synthesized compounds to BRD2 BD1 and BD2, BRD3 BD1 and BD2, and BRD4 BD1 and BD2 were also determined by a label free binding assay using the OctetRED label free biolayer interferometry (BLI) binding assay.
(§4) BLI measures interference pattern changes of light reflected from an optical layer and a biolayer containing protein targets only or complexed with interacting partners. The assay principle is similar to the surface plasmon resonance (SPR) assay in which the target protein is immobilized on an optical surface and then exposed to potential binding partners in solution. The interaction between the binding partner and the immobilized protein changes the optical properties of the biosensors, resulting in the wavelength shift of reflecting light which will change the interference pattern. Association and dissociation rates can be obtained by fitting the real time wavelength shift of the based on a proper binding model, from which KD values can be obtained thereafter.
(§5) Biotin labeled BRD proteins (10 μg/ml) in kinetic assay buffer (PBS, pH 7.4, 0.1% BSA and 0.01% Tween-20) were immobilized on Super Streptavidin (SSA) sensors for 15 minutes followed by washing in kinetic buffer for 10 minutes to eliminate any loose non-specific immobilization. […] These protein coated sensors were then immersed into the testing compound solutions, starting from the one with the lowest concentration, where compound association occurs and then returned to the fresh buffer for the dissociation. The same operation was repeated for the next solution with higher concentration up to the one with the highest concentration. […] For each kinetic cycle, kinetic curves for association and dissociation were obtained from raw sensorgrams by using the double reference subtraction protocol included in the analysis program (Data Analysis 7.0) provided by the manufacturer, in which nonspecific interaction and buffer drift were both corrected. The association and dissociation rate constants (kon and koff) were determined using the global fitting protocol in the analysis program based on a reversible 1:1 binding model. The equilibrium association constant (KA) was calculated thereafter. All binding data were collected at 30 degree. Assay plates were kept being shaken at 1000 RPM in the whole experiment time period to avoid mass transport effect.

BRD2 BD1 [8] = target: T5, BRD2 BD1; assay: as above
Procedure: as §3, §4, §5

BRD4 BD2 [9] = target: T6, BRD4 BD2; assay: as above
Procedure: as §3, §4, §5

AML-2 = assay: Cell growth inhibition in leukemia cell line; assay type: cell-based
Procedure: (§6) The effect of representative BET bromodomain inhibitors on cell viability was determined in a 4-day proliferation assay. Cells were maintained in the appropriate culture medium with 10% FBS at 37° C. and an atmosphere of 5% CO2. All the cell lines were used within three months of thawing fresh vials.
(§7) Cells were seeded in 96-well flat bottom (Corning COSTAR, Corning, N.Y., cat#3595) or white opaque cell culture plates (BD Falcon, cat#353296) at a density of 3,000-10,000 cells/well in 75 μl of culture medium. Compounds were serially diluted in the appropriate medium, and 75 μl of the diluted compounds were added to the appropriate wells of the cell plate. After the addition of compounds, the cells were incubated at 37° C. in an atmosphere of 5% CO2 for 4 days. Cell viability was determined using the CellTiter-Glo® Luminescent Cell Viability Assay Kit (Promega, Madison, Wis.) for MOLM-13 cells and WST (2-(2-methoxy-4-nitrophenyl)-3-(4-nitrophenyl)-5-(2,4-disulfophenyl)-2H-tetrazolium, monosodium salt) Cell Counting-8 Kit (Dojindo Molecular Technologies, Inc., Rockville, Md.) for MDA-MB-436 cells according to the manufacturers' instructions.

BRD4 BD2 [10] = target: T6, BRD4 BD2; assay: FP competitive binding assay using Cpd. No. 350 as the probe
BRD4 BD1 [11] = target: T2, BRD4 BD1; assay: as above
BRD2 BD2 [12] = target: T4, BRD2 BD2; assay: as above
[13] = tested on: leukemia MOLM-13 cell line; assay: 4-day cell viability assay, CellTiter-Glo; assay type: cell-based; details: 4 days, read-out: Cell Growth Inhibition (IC50 (nM)) MOLM-13 Cell Line (CellTiter-Glo assay)
Procedure: as §6, §7
For the CellTiter-Glo assay, 100 μl of CellTiter-Glo® Reagent was added to each well, and then the plates were incubated at room temperature for 10-20 minutes. The luminescent signal was measured using a Tecan Infinite M1000 multimode microplate reader (Tecan, Morrisville, N.C.). The readings were normalized to the DMSO-treated cells and the IC50 was calculated by nonlinear regression (four parameters sigmoid fitted with variable slope, least squares fit, and no constraint) analysis using the GraphPad Prism 5 software.

BRD2 BD1 [14] = target: T5, BRD2 BD1; assay: FP competitive binding assay using Cpd. No. 350 as the probe
Procedure: Fluorescence Polarization (FP) competitive binding studies (see above) were carried out using the FAM labeled fluorescent probe Cpd. No. 350 to determine binding affinities of representative compounds to both BD1 and BD2 of BRD2, BRD3, and BRD4 proteins. Equilibrium dissociation constants (Id) values of Cpd. No. 350 to these six proteins were determined from protein saturation experiments by monitoring the total fluorescence polarization of mixtures composed with the fluorescent probe at a fixed concentration and proteins with increasing concentrations up to full saturation. Serial dilutions of testing protein were mixed with Cpd. No. 350 to a final volume of 200 μl in the assay buffer. […] Plates were incubated at room temperature for 30 minutes with gentle shaking to assure equilibrium. […] Kd values of Cpd.
The IC50 and Ki values of compounds were determined in a competitive binding experiment as described above. […] FP values were measured as described above. IC50 values were determined by nonlinear regression fitting of the competition curves.

prostate VCaP cell line = assay: Cell growth inhibition, Cell TiterGLO, 4 days; assay type: cell-based; details: Homo sapiens, VCaP, 96 h, treated 4 days, read-out: VCaP cells (IC50 (nM))
BRD3 BD1 [15] = target: T1, BRD3 BD1; assay: OctetRED biolayer interferometry (BLI) binding assay
Procedure: as §3, §4, §5

BRD3 BD2 [16] = target: T3, BRD3 BD2; assay: as above
Procedure: as §3, §4, §5

BRD2 BD2 [17] = target: T4, BRD2 BD2; assay: as above
Procedure: as §3, §4, §5

[18] = tested on: breast cancer MDA-MB-436 cell line; assay: 4-day cell viability assay, WST; assay type: cell-based; details: Homo sapiens, MDA-MB-436, 96 h; 4 days; read-out: Cell Growth Inhibition (IC50 (nM)) MDA-436 Cell Line (WST assay)
Procedure: as §6, §7
For the WST assay, WST-8 reagent was added to each well at a final concentration of 10% (v/v), and then the plates were incubated at 37° C. for 1-2 hours for color development. The absorbance was measured at 450 nm using a SPECTRAmax PLUS plate reader (Molecular Devices, Sunnyvale, Calif.). The readings were normalized to the DMSO-treated cells and the half maximal inhibitory concentration (IC50) was calculated by nonlinear regression (four parameters sigmoid fitted with variable slope, least squares fit, and no constraint) analysis using the GraphPad Prism 5 software (GraphPad Software, La Jolla, Calif.).

BRD2 BD2 [19] = target: T4, BRD2 BD2; assay: FP competitive binding assay (BRD-1F probe)
Procedure: The FAM labeled fluorescent probe (BRD-1F) was synthesized based on a known small-molecule BET bromodomain inhibitor. […] Final BRD-1F concentration was 5 nM. Plates were incubated at room temperature for 1-2 hours with gentle shaking to assure equilibrium.
Final probe concentration is 5 nM in all assays. […] FP values were measured as described above.

[20] = Homo sapiens, MV4-11, cell growth inhibition

Structure (SMILES)	IC50 (MOLM-13) [nM]	IC50 (MV-4-11) [nM]	IC50 (K562) [nM]	Kd (BRD4 BD1 [7]) [nM]	Kd (BRD2 BD1 [8]) [nM]	Kd (BRD4 BD2 [9]) [nM]	IC50 (AML-2) [nM]	Ki (BRD2 BD2 [12]) [µM]	IC50 ([13]; Homo sapiens, MOLM-13, 96 h) [nM]	Ki (BRD2 BD1 [14]) [µM]	Kd (BRD2 BD2 [17]) [nM]	other results
COc1cc2c(cc1-c1c(C)noc1C)[nH]c1ncnc(-c3c(C)n[nH]c3C)c12 [Cpd. No. 38]	< 500	< 100										
COc1cc2c(cc1-c1c(C)noc1C)[nH]c1nc(C(=O)NC3CCN(CCCNC(=O)c4ccc(-c5c6ccc(=O)cc-6oc6cc(O)ccc56)c(C(=O)O)c4)CC3)nc(-c3ccnc4ccc(F)cc34)c12 [Cpd. No. 350]												Kd (BRD3 BD1 [1]): 0.0065 µM; Kd (BRD4 BD1 [2]): 0.0055 µM; Kd (BRD3 BD2 [3]): 0.0006 µM; Kd (BRD2 BD2 [4]): 0.0022 µM; Kd (BRD2 BD1 [5]): 0.002 µM; Kd (BRD4 BD2 [6]): 0.003 µM
CCc1n[nH]c(CC)c1-c1nccc2[nH]c3cc(-c4c(C)noc4C)c(OC)cc3c12 [Cpd. No. 23, 4-(1-(3,5-diethyl-1H-pyrazol-4-yl)-8-methoxy-5H-pyrido[4,3-b]indol-7-yl)-3,5-dimethylisoxazole]			> 2000	29 ± 8.8	25.6 ± 3.7	12.9 ± 2.1	104 ± 5	0.0117 ± 0.003	104 ± 16	0.0111 ± 0.001		IC50 (MV4;11; [20]): 17 ± 3 nM; Ki (BRD4 BD2 [10]): 0.0122 ± 0.0016 µM; Ki (BRD4 BD1 [11]): 0.0247 ± 0.001 µM; IC50 (prostate VCaP cell line): 117 nM
COc1cc2c(cc1-c1c(C)noc1C)[nH]c1ccnc(-c3c(C)n[nH]c3C)c12 [Cpd. No. 22, 4-(1-(3,5-dimethyl-1H-pyrazol-4-yl)-8-methoxy-5H-pyrido[4,3-b]indol-7-yl)-3,5-dimethylisoxazole]			> 2000	40 ± 6.4	34 ± 2.1	27.9 ± 6.8	101 ± 22	0.0154 ± 0.0032		0.021 ± 0.0033	24.4 ± 6.2	IC50 (MV4;11; cell growth inhibition): 61 ± 28 nM; Kd (BRD3 BD1 [15]): 17.9 ± 8.8 nM; Kd (BRD3 BD2 [16]): 18.7 ± 4.9 nM; Ki (BRD4 BD2 [10]): 0.0161 ± 0.0028 µM; Ki (BRD4 BD1 [11]): 0.0441 ± 0.0064 µM; IC50 [13]: 183 ± 38 nM
COc1cc2c(cc1-c1c(C)noc1C)[nH]c1ncnc(-c3c(C)[nH]c4ccccc34)c12 [Cpd. No. 44]	< 100	< 100		27 ± 14.5	33.8 ± 8.2	10.2 ± 4.5					11 ± 4.7	Kd (BRD3 BD1 [15]; BLI, read-out: Kd (nM) BRD3 BD1): 17 ± 7 nM; Kd (BRD3 BD2 [16]; BLI, read-out: Kd (nM) BRD3 BD2): 10.6 ± 1.1 nM
COc1cc2c(cc1-c1c(C)noc1C)[nH]c1ccnc(-c3c(C)nn(C)c3C)c12 [Cpd. No. 25, 4-(8-methoxy-1-(1,3,5-trimethyl-1H-pyrazol-4-yl)-5H-pyrido[4,3-b]indol-7-yl)-3,5-dimethylisoxazole]			> 2000		41.2 ± 2.2		163 ± 2	0.0222 ± 0.0028	343 ± 5	0.0122 ± 0.0017	35.9 ± 8.8	IC50 (MV4;11; [20]): 65 ± 24 nM; IC50 [18]: 119 nM
COc1cc2c(cc1-c1c(C)noc1C)[nH]c1ccnc(-c3c(C)n[nH]c3C)c12	< 500	< 100							311 ± 12			IC50 (BRD2 BD2 [19]; BRD-1F probe 5 nM, protein 200 nM): 0.0928 ± 0.0308 µM; Ki (BRD2 BD2 [19]; BRD-1F probe, calculated from IC50): < 0.01 µM; Ki (BRD2 BD2 [12]; read-out: BRD2 BD2 Ki, FP, Cpd. No. 350 probe […]): 0.0577 ± 0.0081 µM; Ki (BRD2 BD1 [14]; read-out: BRD2 BD1 Ki, FP, Cpd. No. 350 probe […]): 0.0483 ± 0.0013 µM
